Reference: patent publication EP4810493A1, “HETEROCYCLIC CARBONYL DERIVATIVE MODULATOR, PREPARATION METHOD THEREFOR, AND USE THEREOF” (Shanghai Hansoh Biomedical Co., Ltd., priority 2023, dated 2025)
Like-named read-outs stand apart in the source and are kept apart here.

Columns and labels:
[1] = Pharmacokinetic determination in SD rats; conditions: rat, in vivo, po, male SD rats, p.o. 5 mg/kg; for MRT inf: read-out: MRT 0-∞
Protocol: To investigate the pharmacokinetic behaviours of the example compounds in both plasma and brain of SD rats (test animals) following oral administration at a dose of 5 mg/kg.
2.1 Test drugs: The example compounds of the present invention, made in house.
2.2 Test animals: SD Rat, male.
24 SD Rats, male; p.o. respectively at a dose of 5 mg/kg and an administration volume of 10 mL/kg after the rats were fasted overnight.
Formulation of a drug for oral administration: 0.5% CMC-Na (1% Tween 80).
0.50 g of sodium carboxymethyl cellulose (CMC-Na, viscosity: 800-1200 Cps) was weighed and dissolved in 99 mL of purified water, and 1 ml of Tween 80 was added. The components were mixed thoroughly under stirring to form a clear solution.
The example compound was weighed into a 100 mL glass vial, 80 mL of the solution was added, and the mixture was subjected to ultrasound treatment for 10 minutes to obtain a homogeneous suspension with a concentration of 0.5 mg/mL.
After the test animals were euthanised by CO2, blood samples were collected from the heart and brain tissues were harvested at 0.25 h, 0.5 h, 1 h, 2 h, 4 h, 6 h, 8 h, and 24 h post-dose. Blood was placed in EDTA-2K tubes, and centrifuged at 6000 rpm for 6 min at 4°C to separate the plasma. Brain tissues were rinsed with pre-cold PBS, blotted dry, and weighed. Both plasma and brain samples were stored at -80°C. The animals were fed 4 h after administration.
• 3) 40 uL of plasma sample was precipitated with 160 uL of acetonitrile, mixed, and centrifuged at 3500 × g for 5-20 min. Brain tissues were diluted, homogenised and centrifuged. • 4) 100 uL of the treated supernatant solution was taken for LC/MS/MS analysis to determine the concentration of the test compounds.
• Liquid phase conditions: Shimadzu LC-20AD pump • Mass spectrometry conditions: AB Sciex API 4000 mass spectrometer • Chromatographic column: Phenomenex Gemiu 5 um C18 50 × 4.6 mm • Mobile phase: solution A: 0.1% formic acid in water, solution B: acetonitrile • Flow rate: 0.8 mL/min • Elution time: 0-4.0 min, with eluents as follows:
The main pharmacokinetic parameters were calculated using WinNonlin 8.1.

[2] = target: T1, M4 receptor (Homo sapiens, UniProt P08173); experiment: Calcium flux (FLIPR) potentiation assay in cells stably expressing M4 receptor; format: cell-based
T1 construct: expressed in transfected cells
T1 sequence (P08173 1-479): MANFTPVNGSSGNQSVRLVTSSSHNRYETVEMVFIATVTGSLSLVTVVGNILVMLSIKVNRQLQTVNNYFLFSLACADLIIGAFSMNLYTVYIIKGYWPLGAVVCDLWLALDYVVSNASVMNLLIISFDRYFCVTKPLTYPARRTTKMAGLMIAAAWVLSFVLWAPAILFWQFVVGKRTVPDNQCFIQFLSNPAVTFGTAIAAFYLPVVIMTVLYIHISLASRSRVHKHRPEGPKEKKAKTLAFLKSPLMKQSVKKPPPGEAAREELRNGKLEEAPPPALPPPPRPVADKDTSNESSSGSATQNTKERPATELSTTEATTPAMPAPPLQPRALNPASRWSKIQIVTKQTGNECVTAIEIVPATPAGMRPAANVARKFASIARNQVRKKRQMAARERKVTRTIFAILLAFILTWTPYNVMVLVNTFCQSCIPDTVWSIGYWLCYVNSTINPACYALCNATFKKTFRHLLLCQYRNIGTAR
Source text: Test example 1. Determination of the effect of the compounds of the present invention on calcium current in cells stably expressing M1-M5 receptors
To detect the potentiating effect of compounds on calcium flux activity in CHO-K1/human M1/3/5 and CHO-K1/Gα15 M2/4 cells.
384-well assay plate, 384-well plate, FLIPR Tip, FLIPR Penta plate reader, Dispendix non-contact nanoliter dispensing system (liquid handling workstation), liquid handler.
Ham's F-12 Nutrient Mix, foetal bovine serum, P/S (Gibco: 15140122), HBSS (Gibco: 14025076), HEPES (Gibco: 15630080), FLIPR calcium 6 assay kit (Molecular Devices: R8190), Probenecid (PBA) (Invitrogen: P36400), Acetylcholine chloride (Sigma: A6625-25G) Complete culture medium: DMEM + 10% FBS + 1X P/S; Cell seeding medium: DMEM + 10% FBS + 1X PS; Assay buffer 1: 1X HBSS + 20 mM HEPES +2.5 mM Probenecid; Assay buffer 2: 1X HBSS + 20 mM HEPES; Cell line: CHO-K1/M1; CHO-K1/M2/Gα15; CHO-K1/M3; CHO-K1/M4/Gα15; CHO-K1/M5.
FLIPR calcium 6 assay kit: Component A was dissolved in Assay buffer 1, and the mixture was shaken for 1-2 min, sub-packaged and stored at -20°C.
• 1) CHO-K1/M1; CHO-K1/M2/Gα15; CHO-K1/M3; CHO-K1/M4/Gα15; and CHO-K1/M5 cell lines were cultured separately in complete culture medium at 37°C, 5% CO2 to 70%-90% confluency. • 2) The cells were digested and resuspended in cell seeding medium, 5,000 cells/well/20 µL were seeded into a 384-well cell culture plate, and the cells were cultured at 37°C, 5% CO2 for 24 hours. • 3) The cell culture plate was taken out of the CO2 incubator and equilibrated at room temperature for 10 minutes. • 4) Component A solution was removed and allowed to equilibrate to room temperature. 20 µL of Component A solution was added to each well of the cell culture plate, and incubated at room temperature in the dark for 1 hour. • 5) Acetylcholine chloride (ACh), a muscarinic receptor agonist, was prepared in Assay buffer 2 at EC20/EC100 concentrations; subsequently, 30 µL of the prepared muscarinic receptor agonist was added to a 384-well agonist plate (PE: 6008590) using a Multidrop Combi; the working solutions of the positive control compound and the test compound were serially diluted at a 3.16-fold gradient and dispensed (450 nL) into a 384-well compound plate (PE: 6008590) using the Dispendix liquid handling workstation; 30 µL of Assay buffer 2 was added to the 384-well compound plate (PE: 6008590) using the Multidrop Combi; the positive control compound and the test compound were diluted to 6X, mixed by shaking, and placed at room temperature until use. • 6) 10 µL of the diluted 6X compound was added to the assay wells of the corresponding 384-well cell plate using the FLIPR Penta, followed by a 2-minute incubation. • 7) 10 µL of the prepared muscarinic receptor agonist was added to the assay wells of the corresponding 384-well cell plate using the FLIPR Penta, with simultaneous data acquisition.
FLIPR Penta was used to read and collect the fluorescence signal value (RFU). The maximum RFU value was used to calculate the percent activation data based on the readings of the Low control (DMSO control group) and High control (ACh EC100) experimental groups {% activation rate = (RFUsample - RFUlow control) / (RFUhigh control - RFUlow control)×100}. The test compound was diluted 3.16X in the reaction system to generate 11 concentration points ranging from 30 µM to […].

[3] = CHO-K1/M4/Gα15 cells, potentiation of acetylcholine (EC20) calcium flux, read-out: M4 FLIPR EC50

| Structure (SMILES) | AUC(0-inf) [1] [ng·h/mL] | Cmax [1] [ng/mL] | Tmax [1] [h] | MRT inf [1] [h] | EC50 [2, 3] [nM] | EC50 [2] [nM] |
| --- | --- | --- | --- | --- | --- | --- |
| COc1cc(N2CC(CC(=O)N3Cc4c(C)c(C)n5ncnc5c4C3)C2)ccn1 [Example 236] | 6710 | 1090 | 1.5 | 4.6 | 49.1 | – |
| Cc1c2c(c3ncnn3c1C)CN(C(=O)CC1CN(c3ccc4c(cnn4C)c3)C1)C2 [Example 269] | 3640 | 1330 | 0.83 | 2 | 87.1 | – |
| Cc1c2c(c3ncnn3c1C)CN(C(=O)CC1CN(c3cnc4c(c3)COC4)C1)C2 [Example 270] | 12000 | 3500 | 0.83 | 2.5 | 23.2 | – |
| CCOc1ccc(N2CC(CC(=O)N3Cc4c(C)c(C)n5ncnc5c4C3)C2)cn1 [Example 304, 1-(5,6-Dimethyl-7,9-dihydro-8H-pyrrolo[3,4-c][1,2,4]triazolo[1,5-a]pyridin-8-yl)-2-(1-(6-ethoxypyridin-3-yl)azetidin-3-yl)ethan-1-one] | 4080 | 2380 | 0.5 | 1.32 | 26.9 | – |
| CCn1ncc2cc(N3CC(CC(=O)N4Cc5c(C)c(C)n6ncnc6c5C4)C3)ccc21 [Example 307] | 5300 | 2110 | 0.75 | 2.02 | – | 17.1 |
| Cc1c2c(n3ncnc3c1Cl)CN(C(=O)CC1CN(c3ncc(C(F)(F)F)cn3)C1)C2 [Example 317, 1-(4-Chloro-5-methyl-6,8-dihydro-7H-pyrrolo[3,4-e][1,24]triazolo[1,5-a]pyridin-7-yl)-2-(1-(5-(trifluoromethyl)pyrimidin-2-yl)azetidin-3-yl)ethan-1-one] | 26700 | 2140 | 4 | 11.2 | 16.9 | – |
| Cc1cc2ncnn2c2c1CN(C(=O)CC1CN(c3ncc(C(F)(F)F)cn3)C1)C2 [Example 331] | 10700 | 944 | 2 | 6.8 | – | 101 |
| Cc1c2c(n3ncnc3c1Cl)CN(C(=O)CC1CN(c3ncc(F)cn3)C1)C2 [Example 346, 1-(4-Chloro-5-methyl-6,8-dihydro-7H-pyrrolo[3,4-e][1,2,4]triazolo[1,5-a]pyridin-7-yl)-2-(1-(5-fluoropyrimidin-2-yl)azetidin-3-yl)ethan-1-one] | 11400 | 1460 | 1 | 5.02 | 32.6 | – |
